pEC50: −log10 of the molar value. Read-outs that look alike come from different tables or passages of the source. Each block holds one compound with its values, some of them ahead of it.
Assays:
[1] = tested on: human acute promyelocytic leukemia cells HL 60; assay: Differentiation of HL-60 cells: NBT reduction (counting formazan-containing cells), ED50; assay type: cell-based; conditions: for pEC50: Homo sapiens, read-out: ED50 (effective dose which causes differentiation of 50% of the cultured cells); for activity (in words): HL-60 differentiation, Table 1
Protocol: The test of the activities of the compounds of this invention has been conducted by measuring the concentration required for inducing the differentiation of human acute promyelocytic leukemia cells HL 60, according to the methods described in detail hereinafter.
(§1) The HL-60 cell are cultured in plastic flasks in RPMI 1640 medium supplemented with 5% heat inactivated fetal calf serum and antibiotics (penicillin G and streptomycin). The cells (3×10^4 /ml) are cultured with a compound of the present invention for 4 days. The cells are fixed and stained with Wright-Giemsa to examine the morphological changes of the nuclei.
The biochemical activity of cells treated with the compound is measured as follows:
The cells after 5 days incubation are centrifuged and diluted with RPMI 1640 medium, supplemented with 5% fetal calf serum to provide a definite number of the cells. To the diluted cell suspension are then added 200 ng/ml of 12-o-tetradodecanoylphorbol-13 -acetate (TPA) and the resulting culture medium is then incubated for 20 minutes at 37° C. in the presence of 0.1% of NBT. Thus, the mature differentiated cells containing blue-black formazan is counted by microscopy, so that the ratio of the cells having the ability to reduce NBT, to total cells, can be calculated.
(§2) The biological test was performed according to the method previously described, using the leukemia cells HL 60. The morphological changes were observed under a light microscope. Biochemical activity reducing nitro-blue tetrazolium is assayed by counting the number of cells which contain formazan. The specific activity, ED50 (the concentration which causes the differentiation of 50% of the total cells, represented by M), was calculated and shown in the Table. As a positive control for comparison, all trans retinoic acid was used.

[2] = tested on: chemically-induced papillomas of the skin of mice; conditions: minute quantities; cited from earlier work
[3] = tested on: chemically-induced skin carcinomas in mice; conditions: cited from earlier work
[4] = tested on: human acute promyelocytic leukemia cells (HL-60); assay: Differentiation of HL-60 cells: morphological changes of nuclei (Wright-Giemsa); assay type: cell-based; conditions: HL-60, 4 days culture
Protocol: as §1, §2

[5] = as seen from the therapeutic index; cited from earlier work

pEC50 ([1]; 96 h, HL-60 cells): 6.03
Structure (SMILES): CC(C)(C)c1ccc(C(=O)C=C(O)c2ccc(C(=O)O)cc2)c(O)c1 [compound 9]

Structure (SMILES): CC1(C)CCC(C)(C)c2cc(C(=O)C=C(O)c3ccc(C(=O)O)cc3)c(O)cc21 [compound 8]
pEC50 ([1]; 96 h, HL-60 cells): 10.04

Structure (SMILES): O=C(O)c1ccc(-c2cc(=O)c3ccccc3o2)cc1 [compound 1]
ED50 (effective dose which causes differentiation of 50% of the cultured cells) ([1]; HL-60 cells): inactive (10^-5)

pEC50 ([1]; 96 h, HL-60 cells): 8.92
Structure (SMILES): CC1(C)CCC(C)(C)c2cc3c(=O)c(O)c(-c4ccc(C(=O)O)cc4)oc3cc21 [compound 6]

Structure (SMILES): CC1(C)CCC(C)(C)c2cc(C(=O)C=Cc3ccc(C(=O)O)cc3)c(O)cc21 [compound 7]
pEC50 ([1]; 96 h, HL-60 cells): 10.00

pEC50 ([1]; 96 h, HL-60 cells): 9.29
Structure (SMILES): COC(=O)c1ccc(-c2cc(=O)c3cc4c(cc3o2)C(C)(C)CCC4(C)C)cc1 [compound 4]

Structure (SMILES): CCOC(=O)c1ccc(/C=C(\C)c2ccc3c(c2)C(C)(C)CCC3(C)C)cc1 [Ro 13 6298]
regression of papillomas [2]: regression
therapeutic influence on skin carcinomas [3]: therapeutic influence

Structure (SMILES): CC1=C(/C=C/C(C)=C/C=C/C(C)=C/C(=O)O)C(C)(C)CCC1 [retinoic acid, all trans retinoic acid, reference compound]
pEC50 ([1]; HL-60, 96 h): 8.39
differentiation to mature granulocytes [4]: differentiated to mature granulocytes

Structure (SMILES): CC1(C)CCC(C)(C)c2cc(C(=O)C=C(O)c3ccc(C(=O)O)cc3)c(O)cc21 [No. 8, 4-[1-hydroxy-3-(3-hydroxy-5,6,7,8-tetrahydro-5,5,8,8-tetra-methyl-2-naphthalenyl)-3-oxo-1-propenyl] benzoic acid]
activity (in words) [1]: most active compound

Structure (SMILES): CCOC(=O)c1ccc(/C=C(\C)c2ccc3c(c2)C(C)(C)CCC3(C)C)cc1 [Artinoid]
activity relative to Retinoic acid [5]: ten times as strong

Structure (SMILES): CC1(C)CCC(C)(C)c2cc3c(=O)cc(-c4ccc(C(=O)O)cc4)oc3cc21 [No. 5, 4-(6,7,8,9-tetrahydro-6,6,9,9,-tetramethyl-4H-4-oxo-naphtho[2,3-b]pyran-2-yl) benzoic acid]
activity (in words) [1]: one of the strongest compounds

pEC50 ([1]; 96 h, HL-60 cells): 10.20
Structure (SMILES): CC1(C)CCC(C)(C)c2cc3c(=O)cc(-c4ccc(C(=O)O)cc4)oc3cc21 [compound 5]

pEC50 ([1]; 96 h, HL-60 cells): 6.68
Structure (SMILES): CC(C)(C)c1ccc2c(=O)cc(-c3ccc(C(=O)O)cc3)oc2c1 [compound 2]
